Test results: patent publication US5801174A, “Fused indole and quinoxaline derivatives, their preparation and use” (Neurosearch A/S, priority 1994, dated 1998)

What was measured:
[1] = system: cultured cerebral cortex neurons; assay: 3H-GABA release, cultured cerebral cortex neurons; assay type: cell-based; details: Cerebral cortex neuron; inhibition of stimulated 3H-GABA release, mouse cortical neurons, Table 1
Excerpt: The compounds of the invention have also been tested for their ability to inhibit GABA release from cultured cerebral cortex neurons in the following test:
^3 H-GABA Release, Cortical Neurons
Background: Neurons which express receptors for excitatory amino acids can be depolarized by such compounds and this depolarization will ultimately lead to a release of transmitter substance from the neurons. Cultured neurons obtained from 15-day-old mouse embryo cortex are mainly GABAergic and express all types of excitatory amino acid receptors. This means that they can be stimulated by high potassium or by the excitatory amino acids, NMDA, AMPA and kainate to release their neurotransmitter GABA.
^3 H-GABA may be used to label the GABA transmitter pool in the neurons and the release of ^3 H-GABA from the neurons may be used as a simple functional model for studies of the effects of excitatory amino acids and their antagonists.
Method: Cerebral cortices of 16-day-old mouse embryos are chopped in 0.4×0.4 mm cubes. The tissue is dissociated by mild trypsinization (0.1% (wt/vol) trypsin, 37° C., 15 min) and subsequently inoculated into poly-L-lysine-coated 3-cm Petri dishes containing a slightly modified DMEM (24.5 mM KCI, 30 mM glucose) supplemented with p-aminobenzoate (7 μM), insulin (100 mU/L) and 10% (vol/vol) horse serum. Cells are maintained in culture for 5-7 days with the addition of the antimitotic agent cytosine arbinoside (40 μM) from day 2 in vitro to prevent glial profileration. For further details and references, see Drejer et al. Exp. Brain Res. 47, 259 (1982).
Release experiments are performed using the model described by Drejer et al. Life Sci. 38, 2077 (1986). Cerebral cortex neurons cultured in Petri dishes (30 mm) are added 100 μM γ-vinyl-GABA one hour before the experiment in order to inhibit degradation of GABA in the neurons. 30 min before the experiment 5 μCi ^3 H-GABA is added to each culture and after this preloading period the cell monolayer at the bottom of the dish is covered with a piece of nylon mesh to protect the cells against mechanical damage and to facilitate dispersion of medium over the cell layer. The preloading medium is removed and the Petri dishes are placed in a superfusion system consisting of a peristaltic pump continously delivering thermostated 37° C. superfusion medium HEPES buffered saline (HBS): 10 mM HEPES, 135 mM NaCl, 5 mM KCI, 0.6 mM MgSO4, 1.0 mM CaCl2 and 6 mM D-glucose; pH 7.4) from a reservoir to the top of the slightly tilted Petri dish. The medium is continously collected from the lower part of the dish and delivered to a fraction collector. Initially, the cells are superfused with HBS for 15 min (flow rate 2 ml/min). Then the cells are stimulated for 30 sec every 4 min by changing the superfusion medium from HBS to a corresponding medium containing […].
Test subtances are dissolved in 50% DMSO, 48% ethanol. The final DMSO and ethanol concentration in the assay must not exceed 0.1%.
The stimulated release of ^3 H-GABA (cpm) are corrected for the mean basal release(cpm) before and after stimulation.
The stimulated release in the presence of antagonists are expressed relative to the stimulated release and the IC50 value for the antagonist is calculated (the concentration (μM) of the test substance which inhibit 50% of the stimulated ^3 H-GABA release).
(§1) The test results obtained by testing the compounds of the invention for their in-vitro AMPA receptor affinity and their ability to inhibit GABA release are presented in the following table: […]

[2] = target: AMPA receptor; assay: AMPA receptor binding affinity (in vitro); details: Table 1
Excerpt: In Vitro activity (receptor affinity):
as §1

[3] = system: AMPA-induced clonic seizures in NMRI mice; assay: AMPA-induced clonic seizures; assay type: in vivo; details: Mus musculus; i.v. 5 min (or p.o. 30 min) before 0.3 μg icv AMPA, 10 female NMRI mice per dose; route of the value not given; read-out: ED50 (dose inhibiting 50% of the mice from having clonic seizures)
Experimental: The compound, 8-methyl-5-(4(N,N-dimethylsulphamoyl)-phenyl)-6,7,8,9-tetrahydro-1H-pyrrolo[3,2-h]isoquinoline-2,3-dione-3-oxime has also been tested for its ability to inhibit the clonic seizures induced by AMPA in the following test:
In Vivo activity (AMPA-induced clonic seizures)
AMPA given icv (intracerebroventricular) (15 μg/kg) to NMRI mice induces clonic seizures which should be inhibited by non-NMDA receptor antagonists. Method: Test compound was given i.v. 5 min (or p.o. 30 min) before a 0.3 μg icv administration of AMPA to 10 female NMRI mice (weighing 24-26 g) per dose. The number of mice experiencing clonic seizures within the next 5 min was noted. An ED50 value was calculated as the dose inhibiting 50% of the mice from having clonic seizures.

[4] = system: gerbil hippocampus CA1-layer, global ischaemia; assay: Transient Forebrain Ischemia Model (2-VO Gerbils); assay type: in vivo; details: 30 mg/kg i.p. 30, 60 and 90 min post occlusion (total 90 mg/kg); ischaemic score 4 days later; Mann-Whitney test
Experimental: The compound, 8-methyl-5-(4-(N,N-dimethylsulphamoyl)-phenyl)-6,7,8,9-tetrahydro-1H-pyrrolo[3,2-h]isoquinoline-2,3-dione-3-oxime has also been tested in the following animal model of global ischaemia:
Transient Forebrain Ischemia Model (2-VO Gerbils)
Gerbils were anaesthetized with halothane, right and left carotid arteries located and occluded for 4 minutes. Animals were kept warm before and after the operation using heating lamps. During the operation the gerbils were placed on heating plates, body temperature controlled and maintained at 37°±0.5° C. Postocclusion, the gerbils were divided in two groups. One group received 30 mg/kg test compound i.p. 30, 60, and 90 min post occlusion (total dose was 90 mg/kg). The control group received 5.5% glucose i.p. at the same time intervals. Four days later, the animals were sacrificed, brains removed and cooled to -70° C. Thereafter, the brains were sectioned in […] thick sections of which 5-7 with hippocampal tissue were selected and stained with hematoxylin eosine (HE).
Based upon the degree of hippocampal damage, each hippocampus was categorised into one of four groups (Group 1: no damage in the CA1-layer; Group 2: the CA1-layer partly damaged; Group 3: the CA1-layer completely damaged; and Group 4: damage in more than just the CA1-layer). […]

Question: With `CN1CCc2c(-c3ccc(S(=O)(=O)N(C)C)cc3)cc3c(c2C1)NC(=O)C3=NO` [8-methyl-5-(4-(N,N-dimethylsulphamoyl)-phenyl)-6,7,8,9-tetrahydro-1H-pyrrolo[3,2-h]-isoquinoline-2,3-dione-3-oxime] as the compound, how does the IC50 [1] read?
Answer: 120 nM

Question: And the IC50 [2]?
Answer: 20 nM

Question: What about the ED50 [3] of the same compound?
Answer: 3 mg/kg

Question: What about the “neuroprotective effect in the gerbil 2-VO model” value [4] of the same compound?
Answer: significant neuroprotective effect
